Q: Which melting point does the source give for `O=[N+]([O-])c1cccnc1Oc1ccc(Cl)cc1` here?
A: Its melting point is 89 to 90 °C.

Q: Which melting point does the source give for `Cc1ccc(CCCC(=O)O)cc1` here?
A: The melting point was 57 °C.

Q: Which melting point does the source give for `COc1nn(CSP(=S)(OC)OC)c(=O)s1` here?
A: Its melting point is 39.5 °C.

Q: For `Nc1c(I)cc(I)c(C(=O)O)c1I`, which melting point is on record?
A: The melting point was 196 to 199 °C.

Q: For `CCCCOCCOCCOC(=O)CCCCC(=O)OCCOCCOCCCC`, which melting point is on record?
A: The melting point was -47 °C.

Q: For `O=C1OC(c2ccccc2)=NC1=Cc1ccc(-c2ccccc2Br)o1`, which melting point is on record?
A: The melting point was 159 to 160 °C.

Q: For `COC(=O)C=Cc1ccc(O)c(OC)c1`, which melting point is on record?
A: Its melting point is 64 °C.

Q: Which melting point does the source give for `C[C@@]1(CO)N[C@H](C(=O)O)CC2c3ccccc3NC21` (some centres undefined) here?
A: Its melting point is 258 to 262 °C.

Q: For `Cc1c(N)cccc1O`, which melting point is on record?
A: Its melting point is 127 to 133 °C.

Q: With `Cc1c(C)c(O)c(C)c(C)c1O` as the molecule, how does the melting point read?
A: The melting point was 233 °C.

Q: With `COC(=O)C1=C(N)Oc2cc(C)[nH]c(=O)c2C1c1ccccc1` (centres undefined) as the molecule, how does the melting point read?
A: Its melting point is 230 to 232 °C.

Q: With `Cc1c(C)c2c(c3c1CC3)CC2` as the molecule, how does the melting point read?
A: The melting point was 105 to 116 °C.

Q: For `CNc1ccccc1C(=O)O`, which melting point is on record?
A: Its melting point is 180 °C.

Q: With `O/N=C(\Cc1ccccc1)c1ccc2c3c(cccc13)CC2` as the molecule, how does the melting point read?
A: The melting point was 138 °C.

Q: For `c1cc2c(ccc3nonc32)nn1`, which melting point is on record?
A: Its melting point is 139 to 141 °C.

Q: With `CC(C)(C)OC(=O)NC1(C(=O)O)CCc2ccccc2C1` (centres undefined) as the molecule, how does the melting point read?
A: Its melting point is 185 to 187 °C.

Q: Which melting point does the source give for `CC1CC(C)(C)CC1=O` (centres undefined) here?
A: Its melting point is -25.6 °C.

Q: Which melting point does the source give for `COC(=O)c1ccccc1C#N` here?
A: Its melting point is 50 °C.

Q: For `Cc1c(CCl)c(C)c2c(c1CCl)CC2`, which melting point is on record?
A: The melting point was 92 °C.

Q: Which melting point does the source give for `OCc1ccc(N2CCOCC2)cc1` here?
A: Its melting point is 96 to 98 °C.

Q: For `CCOC(=O)c1cccc(Oc2cncc(C)n2)c1`, which melting point is on record?
A: The melting point was 50.5 to 51.5 °C.

Q: For `NNC(=O)c1cccc(OCc2ccccc2)c1`, which melting point is on record?
A: The melting point was 113 to 115 °C.

Q: With `O=C(CCl)N[C@@H](Cc1ccc(O)cc1)C(=O)O` as the molecule, how does the melting point read?
A: The melting point was 153 to 154 °C.

Q: For `Cc1cc2c(N)cccc2nn1`, which melting point is on record?
A: Its melting point is 189 to 191 °C.

Q: With `CC(C)=CCCC(C)=CC=CC(C)=CC=CC(C)=CC=CC=C(C)C=CC=C(C)C=CC1C(C)=CCCC1(C)C` (centres undefined) as the molecule, how does the melting point read?
A: The melting point was 140 °C.

Q: Which melting point does the source give for `Clc1ccc2cc(Cl)ccc2c1` here?
A: The melting point was 140 °C.

Q: Which melting point does the source give for `CN1CC(c2ccccc2)(c2ccccc2)C(=O)c2c(cc(-c3ccccc3)c3ccccc23)C1=O` here?
A: Its melting point is 265 °C.

Q: With `C#CC(C)(CC)OC(N)=O` (centres undefined) as the molecule, how does the melting point read?
A: Its melting point is 55.8 °C.

Q: Which melting point does the source give for `COc1ccc2c(c1)c(CC(=O)OCC(=O)O)c(C)n2C(=O)c1ccc(Cl)cc1` here?
A: The melting point was 150 °C.

Q: For `Brc1ccc(Oc2c(Br)cccc2Br)cc1`, which melting point is on record?
A: Its melting point is 77 to 77.5 °C.

Q: Which melting point does the source give for `CNC(=O)Oc1ccccc1OC(CCl)OC` (centres undefined) here?
A: Its melting point is 80 °C.

Q: With `O=C1Nc2ccccc2CCc2ccccc21` as the molecule, how does the melting point read?
A: Its melting point is 246 to 248 °C.

Q: With `Cc1cc(NS(=O)(=O)c2ccc(N)cc2)nc(C)n1` as the molecule, how does the melting point read?
A: Its melting point is 243 °C.

Q: Which melting point does the source give for `COc1ccc(OCC(O)CN)cc1` (centres undefined) here?
A: Its melting point is 110 to 112 °C.

Q: Which melting point does the source give for `O=S1(=O)CC(O)C(Cl)C1` (centres undefined) here?
A: The melting point was 163 to 165 °C.

Q: For `CC1CCC(C(C)C)C(OC(=O)C(C(=O)c2ccccc2)C(=O)c2ccccc2)C1` (centres undefined), which melting point is on record?
A: The melting point was 138 °C.

Q: With `Cc1ccccc1CC(=O)O` as the molecule, how does the melting point read?
A: The melting point was 88 °C.

Q: Which melting point does the source give for `CCOC(=O)Cc1cc(C(=NNc2ccccc2)C(=O)OCC)c([N+](=O)[O-])cc1[N+](=O)[O-]` here?
A: Its melting point is 154 to 155 °C.

Q: Which melting point does the source give for `CC(=O)Nc1ccc(C(C)=O)c(O)c1` here?
A: The melting point was 143 to 145 °C.

Q: Which melting point does the source give for `O=C1c2ccc(O)cc2C(=O)c2ccc(O)cc21` here?
A: The melting point was 300 °C.

Q: For `CC1(C)OC(=O)C(=Cc2cccs2)C(=O)O1`, which melting point is on record?
A: Its melting point is 182 °C.

Q: Which melting point does the source give for `FC(F)C(F)(F)OCC(Cn1cncn1)c1ccc(Cl)cc1Cl` (centres undefined) here?
A: The melting point was 6 °C.

Q: For `O=Cc1cccc2ccccc12`, which melting point is on record?
A: Its melting point is 33.5 °C.

Q: With `O=Cc1cccc(-c2ccsc2)c1` as the molecule, how does the melting point read?
A: Its melting point is 48 to 49 °C.

Q: For `Brc1cccc2c(/C=N/Nc3ccccc3)cccc12`, which melting point is on record?
A: The melting point was 105 °C.

Q: For `CC(C)(C)OC(=O)N1CCC[C@H]1CO`, which melting point is on record?
A: Its melting point is 61 °C.

Q: Which melting point does the source give for `Nc1ccc2ccccc2c1N=Nc1ccccc1` here?
A: The melting point was 103 °C.

Q: Which melting point does the source give for `CC(C)C1(C)N=C(c2nc3ccccc3cc2C(=O)O)NC1=O` (centres undefined) here?
A: The melting point was 224 °C.

Q: For `COc1ccc(-c2ccnc(S)n2)cc1`, which melting point is on record?
A: The melting point was 202 °C.

Q: Which melting point does the source give for `COc1cc2cc(c1Cl)N(C)C(=O)CC(OC(=O)C(C)N(C)C(C)=O)C1(C)OC1C(C)C1CC(O)(NC(=O)O1)C(OC)C=CC=C(C)C2` (centres undefined) here?
A: The melting point was 172 °C.

Q: Which melting point does the source give for `CC(C)OC(=O)C1=C2c3ncccc3ON2C(Cl)C(Cl)C1Cl` (centres undefined) here?
A: The melting point was 98 °C.

Q: With `CCc1cc(C#N)ccc1N` as the molecule, how does the melting point read?
A: Its melting point is 63 °C.

Q: With `CCC(C)C(N)P(=O)(O)O` (centres undefined) as the molecule, how does the melting point read?
A: The melting point was 274 °C.

Q: Which melting point does the source give for `CCC1(CC)COC(=O)NC1=O` here?
A: The melting point was 97.5 °C.

Q: With `Clc1ccc(Cc2c(N=Cc3ccc4c(c3)OCO4)n[nH]c2N=Cc2ccc3c(c2)OCO3)cc1` as the molecule, how does the melting point read?
A: Its melting point is 206 to 208 °C.

Q: With `O=C1c2ccccc2OC(CCCl)N1O` (centres undefined) as the molecule, how does the melting point read?
A: Its melting point is 114 to 116 °C.

Q: For `O=C(O)C(F)(F)C(F)(F)C(F)(F)C(F)(F)C(F)(F)C(F)(F)C(F)(F)C(F)(F)F`, which melting point is on record?
A: The melting point was 65 °C.

Q: With `COc1cccc(F)c1C=O` as the molecule, how does the melting point read?
A: Its melting point is 59 °C.

Q: Which melting point does the source give for `Cc1cc(Cl)c(N=C=O)cc1N=C=O` here?
A: Its melting point is 62 °C.

Q: With `Cl/C(=C\c1ccccc1)c1ccc2c3c(cccc13)CC2` as the molecule, how does the melting point read?
A: Its melting point is 77 °C.

Q: With `OCc1nccn1Cc1ccccc1` as the molecule, how does the melting point read?
A: The melting point was 94 to 97 °C.

Q: With `O=[N+]([O-])c1ccc(CCc2ccc([N+](=O)[O-])cc2)cc1` as the molecule, how does the melting point read?
A: The melting point was 181 °C.

Q: For `N#CCCn1cc(C(F)(F)F)ccc1=O`, which melting point is on record?
A: Its melting point is 89 to 90 °C.

Q: For `OC1CCCCC1Cl` (centres undefined), which melting point is on record?
A: The melting point was 29 °C.

Source: a melting point compilation (Tetko et al.)
